Measurements published in patent US10517863B2, “Trilobine and its natural analogs for use as a drug” (PIERRE FABRE MEDICAMENT, priority 2015, dated 2019).

Experiments:
[1] = system: P16 promoter in colon cancer cells HCT116; test: P16 (CDKN2A) promoter demethylation, COBRA; format: cell-based, human; conditions: at 0.1 μM
Protocol: Cancer cell lines (colon HCT116 or leukaemia KG1) were treated with the compounds as indicated in the Data Tables and then analysed as following.
DNA was isolated from cultured cells using the DNeasy Blood and Tissue Kit according to the manufacturer's specifications (Qiagen). DNA bisulphite conversion was performed on 2 μg of DNA using the EZ DNA Methylation-Gold Kit according to the manufacturer's specifications (Zymo Research) and bisulfited DNA was eluted with 10 μL of water. Two different techniques were used to analyse the DNA methylation profile after bisulfite conversion of genomic DNA: (A) cloning and sequencing or (B) COBRA. The primers for each promoter are specified in the Table 3.
This technique is a variation of bisulfite sequencing, and combines bisulfite conversion based polymerase chain reaction with restriction digestion. DNA methylation levels are easily and quickly measured without the need for laborious and costing more time sub-cloning and sequencing, as with bisulfite sequencing.
DNA amplification was set up with 100 ng eluted bisulfited DNA in 50 μl PCR reaction containing 1×PCR buffer, 2.5 mM MgCl2, 0.3 mM dNTPs, 400 nM each primer and 1.25 units EpiTaq HS (Takara) on C1000 Touch™ thermal cycler by 98° C. for 10 sec, 55° C. for 30 sec, 72° C. for 30 sec×40 cycles. 20 μL of PCR amplicons were digested in 30 μL by 2 units of BsiEI at 60° C. for 90 min. DNA fragments were migrated by 2% agarose gel electrophoresis and each band was quantified by Image Lab Software v2.0 (BioRad Laboratories).

[2] = system: CMV promoter in KG-1 Luc cells; test: CMV promoter analysis by NOMe-Seq: DNA methylation and nucleosome occupancy; format: cell-based, human; conditions: at 5 μM, 24 h
Protocol: Using the Nucleosome Occupancy and Methylome Sequencing (NOMe-Seq) technique, the methylation status of the CMV promoter and the position of the nucleosomes on such promoter were both analysed.
NOMe-seq is a modified version of the methylation-dependent single promoter assay described by Miranda et al. (Curr Protoc Mol Biol. 2010 21.17.1-16) and the methylase-based DNA assay was performed as previously described with minor modifications (Hochedlinger K, Plath K 2009; Sharma et al. 2010, You et al. 2011, Kelly et al. 2012). After nuclei extraction, GpC methyltransferase (M.CviPI; New England Biolabs) reactions were done in M.CviPI reaction buffer. GpC methyltransferase treatment was followed by DNA extraction, sodium bisulfite conversion, PCR amplification of the region of interest, cloning, and sequencing of individual clones to reveal the structure of single replicas as functional units. After treatment with the compounds or with DMSO, KG-1 Luc cells were centrifuged for 5 min at 500×g. Cell pellets were washed in ice-cold PBS, resuspended in 1 mL of ice-cold nuclei buffer [10 mM Tris (pH 7.4), 10 mM NaCl, 3 mM MgCl2, 0.1 mM EDTA, and 0.5% Nonidet P-40, plus protease inhibitors] per 2×10^6 cells, and incubated on ice for 10 min. […]

COc1ccc2cc1Oc1ccc(cc1)C[C@@H]1NCCc3cc(OC)c4c(c31)Oc1cc3c(cc1O4)CCN(C)[C@H]3C2 [Compound 1, Trilobine]
Demethylation (COBRA) P16/HCT116 ([1]; after 3 days): −37% after 3 days | Demethylation (COBRA) P16/HCT116 ([1]; after 7 days): −52% after 7 days | Demethylation (COBRA) P16/HCT116 ([1]; after 21 days): −53% after 21 days | Chromatin accessibility, KG1 CMV-Luc model [2]: 1.9 ± 0.1 | DNA demethylation, KG1 CMV-Luc model [2]: −37 ± 8%
